Source: patent US10294202B2, “Pyrrolidinones as herbicides” (FMC Corporation, priority 2013, dated 2019)

Experiments:
ducksalad = assay: Test B flooded paddy test; assay type: in vivo, Heteranthera limosa; conditions: Flood, scale of 0 to 100 where 0 is no effect and 100 is complete control
In short: (§1)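 Plants grown to 2-leaf stage; pots flooded 3 cm above soil and compound applied directly into paddy water, depth held throughout. Visual rating against untreated controls after 13 to 15 days in greenhouse, 0 (no effect) to 100 (complete control).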

barnyardgrass [1] = assay: Test B flooded paddy test; assay type: in vivo, Echinochloa crus-galli; conditions: Flood, scale of 0 to 100 where 0 is no effect and 100 is complete control
In short: as §1

sedge, umbrella = assay: Test B flooded paddy test; assay type: in vivo, Cyperus difformis; conditions: Flood, scale of 0 to 100 where 0 is no effect and 100 is complete control
In short: as §1

crabgrass, large = assay: Test A pre-/postemergence herbicide test; assay type: in vivo, Digitaria sanguinalis
In short: (§2)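 Seeds sown in loam soil/sand blend received a preemergence directed soil spray of test chemical in non-phytotoxic solvent with surfactant; postemergence plants (2–10 cm, one- to two-leaf stage) were sprayed with the same formulation. After about 10 days in greenhouse, injury was rated visually versus untreated controls, 0 (no effect) to 100 (complete control).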

pigweed = assay: Test A pre-/postemergence herbicide test; assay type: in vivo, Amaranthus retroflexus
In short: as §2

morningglory = assay: Test A pre-/postemergence herbicide test; assay type: in vivo, Ipomoea spp.
In short: as §2

velvetleaf = assay: Test A pre-/postemergence herbicide test; assay type: in vivo, Abutilon theophrasti
In short: as §2

giant foxtail = assay: Test A pre-/postemergence herbicide test; assay type: in vivo, Setaria faberii
In short: as §2

corn = assay: Test A pre-/postemergence herbicide test; assay type: in vivo, Zea mays
In short: as §2

barnyardgrass [2] = assay: Test A pre-/postemergence herbicide test; assay type: in vivo, Echinochloa crus-galli
In short: as §2

wheat = assay: Test A pre-/postemergence herbicide test; assay type: in vivo, Triticum aestivum
In short: as §2

rice = assay: Test B flooded paddy test; assay type: in vivo, Oryza sativa; conditions: Flood, scale of 0 to 100 where 0 is no effect and 100 is complete control
In short: as §1

[3] = Postemergence, 125 g ai/ha, 0 to 100 scale, 0 is no effect, 100 is complete control
[4] = Postemergence, 500 g ai/ha, 0 to 100 scale (0 no effect, 100 complete control)
[5] = Preemergence, 125 g ai/ha, 0 to 100 scale where 0 is no effect and 100 is complete control
[6] = preemergence, 500 g ai/ha, 0 to 100 scale, 0 is no effect and 100 is complete control
[7] = Postemergence, 125 g ai/ha, visual rating on 0 to 100 scale (0 no effect, 100 complete control), approx. 10 days
[8] = Postemergence, 125 g ai/ha, 0 to 100 scale, 0 no effect, 100 complete control
[9] = Preemergence, 125 g ai/ha, visual rating on 0 to 100 scale (0 no effect, 100 complete control)
[10] = preemergence, 500 g ai/ha, 0 to 100 scale

SMILES: O=C1NCC(c2ccc(Cl)c(C(F)(F)F)c2)C1C(=O)Nc1cccc(F)c1F (racemic) [Compound 268]
- Plant response rating, Ducksalad (ducksalad; 1000 g ai/ha): 100
- Plant response rating, Barnyardgrass (barnyardgrass [1]; 1000 g ai/ha): 0
- Plant response rating, Sedge, Umbrella (sedge, umbrella; 1000 g ai/ha): 0
- Plant response rating, Crabgrass, Large (crabgrass, large; [3]): 70
- Plant response rating, Crabgrass, Large (crabgrass, large; [4]): 80
- Plant response rating, Crabgrass, Large (crabgrass, large; [5]): 80
- Plant response rating, Crabgrass, Large (crabgrass, large; [6]): 90
- Plant response rating, Pigweed (pigweed; [7]): 50
- Plant response rating, Pigweed (pigweed; [4]): 80
- Plant response rating, Pigweed (pigweed; [5]): 30
- Plant response rating, Pigweed (pigweed; [6]): 60
- Plant response rating, Morningglory (morningglory; [7]): 20
- Plant response rating, Morningglory (morningglory; [4]): 0
- Plant response rating, Morningglory (morningglory; [5]): 0
- Plant response rating, Morningglory (morningglory; [6]): 60
- Plant response rating, Velvetleaf (velvetleaf; [5]): 0
- Plant response rating, Velvetleaf (velvetleaf; [6]): 0
- Plant response rating, Foxtail, Giant (giant foxtail; [3]): 80
- Plant response rating, Foxtail, Giant (giant foxtail; [4]): 90
- Plant response rating, Foxtail, Giant (giant foxtail; [5]): 70
- Plant response rating, Foxtail, Giant (giant foxtail; [6]): 80
- Plant response rating, Corn (corn; [3]): 0
- Plant response rating, Corn (corn; [4]): 40
- Plant response rating, Corn (corn; [5]): 0
- Plant response rating, Corn (corn; [6]): 80
- Plant response rating, Barnyardgrass (barnyardgrass [2]; [3]): 50
- Plant response rating, Barnyardgrass (barnyardgrass [2]; [4]): 70
- Plant response rating, Barnyardgrass (barnyardgrass [2]; [5]): 70
- Plant response rating, Barnyardgrass (barnyardgrass [2]; [6]): 80
- Plant response rating, Wheat (wheat; [7]): 0
- Plant response rating, Wheat (wheat; [4]): 0
- Plant response rating, Wheat (wheat; [5]): 0
- Plant response rating, Wheat (wheat; [6]): 0
- Plant response rating, Rice (rice; 1000 g ai/ha): 20

SMILES: O=C1NCC(c2ccc(C(F)(F)F)c(Cl)c2)C1C(=O)Nc1cccc(F)c1F (racemic) [Compound 250]
- Plant response rating, Ducksalad (ducksalad; 1000 g ai/ha): 80
- Plant response rating, Barnyardgrass (barnyardgrass [1]; 1000 g ai/ha): 0
- Plant response rating, Sedge, Umbrella (sedge, umbrella; 1000 g ai/ha): 0
- Plant response rating, Crabgrass, Large (crabgrass, large; [3]): 0
- Plant response rating, Crabgrass, Large (crabgrass, large; [4]): 40
- Plant response rating, Crabgrass, Large (crabgrass, large; [5]): 80
- Plant response rating, Crabgrass, Large (crabgrass, large; [6]): 90
- Plant response rating, Pigweed (pigweed; [3]): 0
- Plant response rating, Pigweed (pigweed; [4]): 0
- Plant response rating, Pigweed (pigweed; [5]): 0
- Plant response rating, Pigweed (pigweed; [6]): 0
- Plant response rating, Morningglory (morningglory; [3]): 0
- Plant response rating, Morningglory (morningglory; [4]): 0
- Plant response rating, Morningglory (morningglory; [5]): 0
- Plant response rating, Morningglory (morningglory; [6]): 0
- Plant response rating, Velvetleaf (velvetleaf; [3]): 0
- Plant response rating, Velvetleaf (velvetleaf; [4]): 0
- Plant response rating, Velvetleaf (velvetleaf; [5]): 0
- Plant response rating, Velvetleaf (velvetleaf; [6]): 0
- Plant response rating, Foxtail, Giant (giant foxtail; [3]): 30
- Plant response rating, Foxtail, Giant (giant foxtail; [4]): 50
- Plant response rating, Foxtail, Giant (giant foxtail; [5]): 50
- Plant response rating, Foxtail, Giant (giant foxtail; [6]): 80
- Plant response rating, Corn (corn; [3]): 0
- Plant response rating, Corn (corn; [4]): 0
- Plant response rating, Corn (corn; [5]): 0
- Plant response rating, Corn (corn; [6]): 0
- Plant response rating, Barnyardgrass (barnyardgrass [2]; [3]): 30
- Plant response rating, Barnyardgrass (barnyardgrass [2]; [4]): 50
- Plant response rating, Barnyardgrass (barnyardgrass [2]; [5]): 20
- Plant response rating, Barnyardgrass (barnyardgrass [2]; [6]): 80
- Plant response rating, Wheat (wheat; [3]): 0
- Plant response rating, Wheat (wheat; [4]): 0
- Plant response rating, Wheat (wheat; [5]): 0
- Plant response rating, Wheat (wheat; [6]): 0
- Plant response rating, Rice (rice; 1000 g ai/ha): 0

SMILES: NC1=NCC(c2ccc(F)c(F)c2)C1C(=O)Nc1ccccc1F (stereo not shown) [Compound 95, 2-amino-4-(3,4-difluorophenyl)-N-(2-fluorophenyl)dihydro-3H-pyrrole-3-carboxamide]
- Plant response rating, Ducksalad (ducksalad; 250 g ai/ha): 90
- Plant response rating, Barnyardgrass (barnyardgrass [1]; 250 g ai/ha): 0
- Plant response rating, Sedge, Umbrella (sedge, umbrella; 250 g ai/ha): 0
- Plant response rating, Crabgrass, Large (crabgrass, large; [8]): 80
- Plant response rating, Crabgrass, Large (crabgrass, large; [4]): 90
- Crabgrass, Large plant response rating (crabgrass, large; [9]): 90
- Plant response rating, Crabgrass, Large (crabgrass, large; [10]): 90
- Plant response rating, Pigweed (pigweed; [8]): 0
- Plant response rating, Pigweed (pigweed; [4]): 0
- Pigweed plant response rating (pigweed; [9]): 0
- Plant response rating, Pigweed (pigweed; [10]): 0
- Plant response rating, Morningglory (morningglory; [8]): 0
- Plant response rating, Morningglory (morningglory; [4]): 0
- Morningglory plant response rating (morningglory; [9]): 0
- Plant response rating, Morningglory (morningglory; [10]): 0
- Plant response rating, Velvetleaf (velvetleaf; [8]): 0
- Plant response rating, Velvetleaf (velvetleaf; [4]): 0
- Velvetleaf plant response rating (velvetleaf; [9]): 0
- Plant response rating, Velvetleaf (velvetleaf; [10]): 0
- Plant response rating, Foxtail, Giant (giant foxtail; [8]): 70
- Plant response rating, Foxtail, Giant (giant foxtail; [4]): 80
- Foxtail, Giant plant response rating (giant foxtail; [9]): 80
- Plant response rating, Foxtail, Giant (giant foxtail; [10]): 90
- Plant response rating, Corn (corn; [8]): 0
- Plant response rating, Corn (corn; [4]): 0
- Corn plant response rating (corn; [9]): 0
- Plant response rating, Corn (corn; [10]): 0
- Plant response rating, Barnyardgrass (barnyardgrass [2]; [8]): 80
- Plant response rating, Barnyardgrass (barnyardgrass [2]; [4]): 90
- Barnyardgrass plant response rating (barnyardgrass [2]; [9]): 60
- Plant response rating, Barnyardgrass (barnyardgrass [2]; preemergence, 500 g ai/ha, 0 to 100 scale (0 no effect, 100 complete control)): 90
- Plant response rating, Wheat (wheat; [8]): 0
- Plant response rating, Wheat (wheat; [4]): 0
- Wheat plant response rating (wheat; [9]): 0
- Plant response rating, Wheat (wheat; [10]): 0
- Plant response rating, Rice (rice; 250 g ai/ha): 0
